“Also recorded” adds a separate entry of the source. Values belong to the compound of their own block, whether it stands above or below them. Positions of bridges follow the written chain, without caps; N, C: chain ends. Non-standard residues stand in square brackets, D forms with d. Residues, ends and D or L forms follow the SMILES beside them.
Columns and labels:
[1] = target: T1, MC1 receptor (Mus musculus, UniProt Q01727); experiment: MC1 receptor competitive binding with 125I-(Tyr2)-NDP-MSH in B16/F1 melanoma cells; design: species or system murine
T1 construct: host or cells: B16/F1 murine melanoma cells
T1 sequence (Q01727 whole entry): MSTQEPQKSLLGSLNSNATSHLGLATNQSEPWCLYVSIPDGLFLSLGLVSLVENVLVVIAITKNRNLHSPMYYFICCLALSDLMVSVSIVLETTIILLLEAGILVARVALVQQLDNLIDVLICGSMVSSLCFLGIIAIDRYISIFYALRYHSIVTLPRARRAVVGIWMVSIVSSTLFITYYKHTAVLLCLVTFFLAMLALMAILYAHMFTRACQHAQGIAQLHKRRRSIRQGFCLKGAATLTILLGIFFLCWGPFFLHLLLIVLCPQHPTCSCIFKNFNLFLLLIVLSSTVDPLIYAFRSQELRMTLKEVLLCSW
Description: Amino acid and resin were purchased from Advanced ChemTech Inc. (Louisville, Ky.) and Novabiochem (San Diego, Calif.). ^125I-Tyr^2-[Nle^4, DPhe^7]-α-MSH {^125I-(Tyr^2)-NDP-MSH} was obtained from PerkinElmer, Inc. (Shelton, Conn.) for MC1 receptor binding assay. ^99mTcO4^− was purchased from Cardinal Health (Albuquerque, N. Mex.) for peptide radiolabeling. All other chemicals used in this study were purchased from Thermo Fisher Scientific (Waltham, Mass.) and used without further purification. B16/F1 murine melanoma cells were obtained from American Type Culture Collection (Manassas, Va.).
The RAD-Lys-(Arg^11)CCMSH was synthesized according to our published procedure, purified by reverse phase-high performance liquid chromatography (RP-HPLC) and characterized by LC-mass spectroscopy. The IC50 value of RAD-Lys-(Arg^11)CCMSH for the MC1 receptor was determined in B16/F1 melanoma cells. Briefly, the B16/F1 cells were harvested and seeded into a 24-well cell culture plate (0.2×10^6 cells/well) and incubated at 37° C. overnight. […] The radioactivities associated with cells were measured in a Wallac 1480 automated gamma counter (PerkinElmer, NJ). The IC50 value of RAD-Lys-(Arg^11)CCMSH was calculated using the Prism software (GraphPad Software, La Jolla, Calif.).

[2] = Urinary metabolites by HPLC in a B16/F1 melanoma-bearing C57 mouse; assay type: in vivo; conditions: 2 h post-injection
Procedure: (§1) Approximately 6.7 MBq of ^99mTc-RAD-Lys-(Arg^11)CCMSH was injected in a B16/F1 melanoma-bearing C57 mouse for imaging and urine analysis. The mouse was euthanized at 2 h post-injection for small animal SPECT/CT (Nano-SPECT/CT®, Bioscan) imaging, as well as to collect urine for analyzing the metabolites. The 9-min CT imaging was immediately followed by the whole-body SPECT scan. The SPECT scans of 24 projections were acquired. Reconstructed SPECT and CT data were visualized and co-registered using InVivoScope (Bioscan, Washington D.C.). The collected urine sample was centrifuged at 16,000 g for 5 min before the HPLC analysis. Thereafter, aliquots of the urine were injected into the HPLC. A 20-minute gradient of 16-26% acetonitrile/20 mM HCl with a flow rate of 1 mL/min was used for urine analysis.

[3] = system: B16/F1 melanoma-bearing C57 mice; experiment: Biodistribution in B16/F1 melanoma-bearing C57 mice; assay type: in vivo
Procedure: All the animal studies were conducted in compliance with Institutional Animal Care and Use Committee approval. The biodistribution of ^99mTc-RAD-Lys-(Arg^11)CCMSH was determined in B16/F1 melanoma-bearing C57 mice (Harlan, Indianapolis, Ind.). C57 mice were subcutaneously inoculated on the right flank with 1×10^6 B16/F1 cells. Tumor weights reached approximately 0.2 g at 10 days post cell inoculation. Each melanoma-bearing mouse was injected with 0.037 MBq of ^99mTc-RAD-Lys-(Arg^11)CCMSH via the tail vein. Groups of 5 mice were sacrificed at 0.5, 2, 4 and 24 h post-injection, and tumors and organs of interest were harvested, weighed and counted. Blood values were taken as 6.5% of the whole-body weight.
The specificity of tumor uptake was determined at 2 h post-injection by co-injecting ^99mTc-RAD-Lys-(Arg^11)CCMSH with 10 μg (6.1 nmol) of unlabeled NDP-MSH. L-lysine co-injection is effective in decreasing the renal uptake of radiolabeled α-MSH peptides. To determine the effect of L-lysine co-injection on the renal uptake of ^99mTc-RAD-Lys-(Arg^11)CCMSH, a group of 5 mice were injected with a mixture of 0.037 MBq of ^99mTc-RAD-Lys-(Arg^11)CCMSH and 12 mg of L-lysine. The mice were sacrificed at 2 h post-injection, and tumors and organs of interest were harvested, weighed and counted in a gamma counter.
Statistical analysis was performed using the Student's t-test for unpaired data to determine the significance of differences in tumor and kidney uptake between the groups in the biodistribution studies with/without peptide blockade or with/without L-lysine co-injection. Differences at the 95% confidence level (p<0.05) were considered significant.

[4] = system: B16/F1 melanoma cells; experiment: Cellular internalization and efflux in B16/F1 melanoma cells; assay type: cell-based, murine; conditions: for activity internalized: 25° C.
Procedure: RAD-Lys-(Arg^11)CCMSH was radiolabeled with ^99mTc using the method described previously. The radiolabeled peptide was purified to single species by Waters RP-HPLC (Milford, Mass.) on a Grace Vydac C-18 reverse phase analytic column (Deerfield, Ill.) using a 20 min gradient of 16-26% acetonitrile in 20 mM HCl aqueous solution at a flow rate of 1 mL/min. Cellular internalization and efflux of ^99mTc-RAD-Lys-(Arg^11)CCMSH were evaluated in B16/F1 melanoma cells. Briefly, the B16/F1 cells in 24-well cell culture plates were incubated at 25° C. for 20, 40, 60, 90 and 120 min (n=4) in the presence of approximately 200,000 cpm of HPLC purified ^99mTc-RAD-Lys-(Arg^11)CCMSH. After incubation, the reaction medium was aspirated and the cells were rinsed twice with 0.5 mL of ice-cold pH 7.4, 0.2% BSA/0.01 M PBS. Cellular internalization of ^99mTc-RAD-Lys-(Arg^11) CCMSH was assessed by washing the cells with acidic buffer [40 mM sodium acetate (pH 4.5) containing 0.9% NaCl and 0.2% BSA] to remove the membrane-bound radioactivity. The remaining internalized radioactivity was obtained by lysing the cells with 0.5 mL of 1 N NaOH for 5 min. Membrane-bound and internalized ^99mTc activities were counted in a gamma counter. Cellular efflux of ^99mTc-RAD-Lys-(Arg^11)CCMSH was determined by incubating the B16/F1 cells with ^99mTc-RAD-Lys-(Arg^11)CCMSH for 2 h at 25° C., removing non-specific-bound radioactivity with 2×0.5 mL of ice-cold pH 7.4, 0.2% BSA/0.01 M PBS rinse, and monitoring radioactivity released into cell culture medium. At time points of 20, 40, 60, 90 and 120 min, the radioactivities in medium, on cell surface and in cells were separately collected and counted in a gamma counter.

[5] = system: B16/F1 melanoma-bearing C57 mouse; experiment: SPECT/CT melanoma imaging in a B16/F1 melanoma-bearing C57 mouse; assay type: in vivo; conditions: 2 h post-injection
Procedure: as §1

[6] = target: T2, MC1 receptor (Homo sapiens, UniProt Q01726); conditions: M21 melanoma cells, cited from earlier work
T2 construct: Both MC1 and αvβ3 integrin receptors are over-expressed in M21 melanoma cells [23]; endogenous in cells; host or cells: M21 human melanoma cells
T2 sequence (Q01726 whole entry): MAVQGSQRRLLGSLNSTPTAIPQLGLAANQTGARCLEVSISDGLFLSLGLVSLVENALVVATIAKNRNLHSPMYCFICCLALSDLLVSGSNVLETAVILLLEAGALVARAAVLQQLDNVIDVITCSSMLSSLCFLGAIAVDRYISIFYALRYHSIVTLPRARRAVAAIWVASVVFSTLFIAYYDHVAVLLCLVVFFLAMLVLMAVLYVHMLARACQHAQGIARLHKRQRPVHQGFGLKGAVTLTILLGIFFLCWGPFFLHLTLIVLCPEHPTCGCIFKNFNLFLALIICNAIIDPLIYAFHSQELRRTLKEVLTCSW

[7] = target: T3, αvβ3 integrin receptor (Homo sapiens, UniProt P05106+P06756); conditions: M21 melanoma cells, vs RGD-Lys-(Arg11)CCMSH; cited from earlier work
T3 construct: Both MC1 and αvβ3 integrin receptors are over-expressed in M21 melanoma cells [23]; endogenous in cells; host or cells: M21 human melanoma cells
T3 sequence (P06756 31-889 limits assumed): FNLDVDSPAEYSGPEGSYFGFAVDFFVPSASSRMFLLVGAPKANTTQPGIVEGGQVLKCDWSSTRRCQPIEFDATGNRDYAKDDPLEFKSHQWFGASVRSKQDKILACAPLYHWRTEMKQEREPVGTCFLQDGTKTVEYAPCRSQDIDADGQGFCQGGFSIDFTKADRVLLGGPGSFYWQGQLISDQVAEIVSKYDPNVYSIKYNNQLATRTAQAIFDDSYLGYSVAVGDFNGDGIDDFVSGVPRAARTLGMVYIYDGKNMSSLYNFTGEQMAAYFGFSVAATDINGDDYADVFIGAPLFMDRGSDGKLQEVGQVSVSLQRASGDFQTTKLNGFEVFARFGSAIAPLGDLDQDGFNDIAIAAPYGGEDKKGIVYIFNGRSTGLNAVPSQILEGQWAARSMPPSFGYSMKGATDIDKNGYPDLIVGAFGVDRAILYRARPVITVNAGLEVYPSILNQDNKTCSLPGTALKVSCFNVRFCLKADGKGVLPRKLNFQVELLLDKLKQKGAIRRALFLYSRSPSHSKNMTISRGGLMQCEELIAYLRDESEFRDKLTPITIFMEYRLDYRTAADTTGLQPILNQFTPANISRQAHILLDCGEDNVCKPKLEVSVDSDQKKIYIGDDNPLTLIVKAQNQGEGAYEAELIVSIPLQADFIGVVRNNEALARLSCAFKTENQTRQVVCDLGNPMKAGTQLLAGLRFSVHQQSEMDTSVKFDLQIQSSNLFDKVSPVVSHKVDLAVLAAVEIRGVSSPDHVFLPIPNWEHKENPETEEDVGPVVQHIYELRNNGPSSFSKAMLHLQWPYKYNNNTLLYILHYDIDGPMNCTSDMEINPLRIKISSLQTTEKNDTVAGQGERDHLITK
T3 sequence (P06756 891-1048 limits assumed): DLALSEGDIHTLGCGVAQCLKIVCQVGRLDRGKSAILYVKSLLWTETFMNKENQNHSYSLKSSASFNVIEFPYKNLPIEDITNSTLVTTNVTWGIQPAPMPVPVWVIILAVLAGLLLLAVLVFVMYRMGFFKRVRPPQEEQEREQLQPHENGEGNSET
T3 sequence (P05106 27-788): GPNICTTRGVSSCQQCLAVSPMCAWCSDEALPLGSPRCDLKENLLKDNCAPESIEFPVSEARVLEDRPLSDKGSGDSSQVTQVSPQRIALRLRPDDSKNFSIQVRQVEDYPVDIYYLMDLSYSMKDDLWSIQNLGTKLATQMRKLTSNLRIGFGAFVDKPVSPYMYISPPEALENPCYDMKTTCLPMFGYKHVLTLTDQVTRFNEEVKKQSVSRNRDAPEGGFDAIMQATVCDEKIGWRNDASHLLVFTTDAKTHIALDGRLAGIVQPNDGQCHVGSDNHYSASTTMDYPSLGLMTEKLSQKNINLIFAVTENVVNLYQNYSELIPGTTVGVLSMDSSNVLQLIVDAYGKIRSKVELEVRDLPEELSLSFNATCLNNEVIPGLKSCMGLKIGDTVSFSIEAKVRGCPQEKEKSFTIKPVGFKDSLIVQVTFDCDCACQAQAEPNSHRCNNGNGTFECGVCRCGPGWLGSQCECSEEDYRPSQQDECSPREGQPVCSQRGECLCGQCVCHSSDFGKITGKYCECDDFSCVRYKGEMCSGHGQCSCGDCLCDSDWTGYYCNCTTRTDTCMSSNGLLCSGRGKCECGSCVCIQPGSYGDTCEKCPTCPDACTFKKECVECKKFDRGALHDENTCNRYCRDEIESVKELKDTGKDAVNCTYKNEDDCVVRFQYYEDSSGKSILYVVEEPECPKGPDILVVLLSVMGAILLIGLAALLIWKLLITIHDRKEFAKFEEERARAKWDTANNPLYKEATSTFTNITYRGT

- IC50 [1]: 0.26 nM
- remained intact in urine [2]: Approximately 82%
- transformed to a more lipophilic metabolite ([2]; urine): 18%
- tumor uptake with NDP-MSH co-injection as % of tumor uptake without ([3]; 10 μg (6.1 nmol) non-radiolabeled NDP-MSH co-injection, 2 h post-injection, p<0.01): 7.8%
- liver uptake as % of liver uptake of 99mTc-RGD-Lys-(Arg11)CCMSH ([3]; 0.5 h post-injection): 66.2%
- renal uptake relative to 99mTc-RGD-Lys-(Arg11)CCMSH ([3]; 0.5 h post-injection): 1.84 times
- tumor uptake relative to 99mTc-RGD-Lys-(Arg11)CCMSH ([3]; 0.5 h post-injection): 1.51 times
- effect of L-lysine co-injection on tumor uptake ([3]; 2 h post-injection): without affecting the tumor uptake
- liver uptake as % of liver uptake of 99mTc-RGD-Lys-(Arg11)CCMSH ([3]; 2 h post-injection): 61.9%
- renal uptake relative to 99mTc-RGD-Lys-(Arg11)CCMSH ([3]; 2 h post-injection): 1.39 times
- tumor uptake relative to 99mTc-RGD-Lys-(Arg11)CCMSH ([3]; 2 h post-injection): 1.34 times
- renal uptake relative to 99mTc-RGD-Lys-(Arg11)CCMSH ([3]; 4 h post-injection): 1.42 times
- tumor uptake relative to 99mTc-RGD-Lys-(Arg11)CCMSH ([3]; 4 h post-injection): 1.43 times
- liver uptake as % of liver uptake of 99mTc-RGD-Lys-(Arg11)CCMSH ([3]; 24 h post-injection): 72.3%
- decrease of renal uptake by L-lysine co-injection ([3]; L-lysine co-injection): 46%
- effect of peptide blockade co-injection on renal uptake ([3]; NDP-MSH co-injection): did not reduce the renal uptake
Compound: CC(C)[C@H](NC(=O)[C@@H]1CCCN1C(=O)[C@H](CCCNC(=N)N)NC(=O)[C@H](CS)NC(=O)[C@H](Cc1c[nH]c2ccccc12)NC(=O)[C@H](CCCNC(=N)N)NC(=O)[C@@H](Cc1ccccc1)NC(=O)[C@H](Cc1c[nH]cn1)NC(=O)[C@H](CCC(=O)O)NC(=O)[C@H](CS)NC(=O)[C@H](CS)NC(=O)[C@H](CCCCN)NC(=O)[C@@H]1CC(=O)N[C@@H](CCCNC(=N)N)C(=O)N[C@@H](C)C(=O)N[C@@H](CC(=O)O)C(=O)N[C@H](Cc2ccc(O)cc2)C(=O)N1)C(N)=O [^99mTc-RAD-Lys-(Arg^11)CCMSH, metal not drawn] (RAD[dY]DKCCEH[dF]RWCRPV-NH2; lactam N-5)
- activity internalized ([4]; 20 min post incubation): 59.20±5.10%
- cellular internalization and retention, in words ([4]; B16/F1 melanoma cells): rapid cellular internalization and extended cellular retention
- activity internalized ([4]; after 2 h incubation): 78.24±1.13%
- visualization of melanoma lesions by SPECT/CT [5]: visualized clearly; also recorded: clearly visualized

Compound: CC(C)[C@H](NC(=O)[C@@H]1CCCN1C(=O)[C@H](CCCNC(=N)N)NC(=O)[C@H](CS)NC(=O)[C@H](Cc1c[nH]c2ccccc12)NC(=O)[C@H](CCCNC(=N)N)NC(=O)[C@@H](Cc1ccccc1)NC(=O)[C@H](Cc1c[nH]cn1)NC(=O)[C@H](CCC(=O)O)NC(=O)[C@H](CS)NC(=O)[C@H](CS)NC(=O)[C@H](CCCCN)NC(=O)[C@@H]1CC(=O)N[C@@H](CCCNC(=N)N)C(=O)N[C@@H](C)C(=O)N[C@@H](CC(=O)O)C(=O)N[C@H](Cc2ccc(O)cc2)C(=O)N1)C(N)=O [RAD-Lys-(Arg^11)CCMSH] (RAD[dY]DKCCEH[dF]RWCRPV-NH2; lactam N-5 (inferred))
- increase of MC1 receptor binding affinity by switch from RGD to RAD ([6]; vs RGD-Lys-(Arg11)CCMSH): 6.7 fold
- decrease of αvβ3 integrin receptor binding affinity by switch from RGD to RAD [7]: 248 fold

Compound: RGD-Lys-(Arg^11)CCMSH [cyclic RGD {Arg-Gly-Asp-DTyr-Asp} motif conjugated to [Cys3,4,10, D-Phe7, Arg11]α-MSH3-13 peptide via a lysine linker, reference compound]
- IC50 ([6]; from ref. 23, read-out: MC1 receptor binding affinity): 2 nM

Reference: patent publication US10238758B2, “Radiolabeled alpha-melanocyte stimulating hormone hybrid peptide for melanoma targeting” (STC.UNM, priority 2011, dated 2019)
